Test results as given in US10751322B2, “Indole-3-aldehyde for treating dysreactive immune disorders” (Universita′ degli Studi di Perugia, priority 2013, dated 2020).

Assays:
AhR = biological target: T1, AhR (Mus musculus, UniProt P30561); assay: AhR-responsive luciferase reporter test of agonist activity; assay type: cell-based; conditions: cell line H1L1.1c2, FIG. 1
T1 construct: endogenous in cells; host or cells: H1L1.1c2
Description: For this test, an AhR-responsive cell line was stimulated (cell line H1L1.1c2 containing a luciferase of firefly sensitive to stably transfected AhR) with IAld, indole-3-acetaldehyde (IAAld), indole-3-acetic acid (IAA) and indole-3-lactic acid (ILA). In a way well known to the technician in the field, the agonist activity was determined by means of luciferase test, and in FIG. 1 the luciferase activity of the different ligands, representative of such agonist activity, has been indicated, on the ordinate, as a percentage of the response induced by 50 nM of formylindolo[3,2-b]carbazole (FICZ) according to the ligand dose, expressed in logarithmic scale on the abscissa.

[1] = system: genes Cyp1A1, Cyp1B1, IL-22, IL-10 and IDO1; assay type: cell-based, mice
Description: (§1) For these verifications, cultures were set up of mice stomachs and colons stimulated with 1 or 100 mM of IAld for 24 hours in vitro before determining the transcription of the above indicated genes by means of polymerase reaction. The histograms A-E show the activation (expressed in terms of the number of times the mRNA increases) of the genes Cyp1A1, Cyp1B1, IL-22, IL-10 and IDO1 respectively in the stomach (top diagram) and in the colon (bottom diagram) as a consequence of the stimulation. […] For comparison, also indicated are the values in the absence of stimulation with IAld. […] To assess the therapeutic effect in treating candidiasis, two experimental models were used of infection by C. albicans obtained by administration of the fungus intragastrically (by means of a tube) and intravaginally (by means of tip) respectively. To assess the therapeutic effect in treating colitis, the model used requires the administration of an irritant (dextran sodium sulphate, DDS), through the mouth. The assessment was made on mice C57BL/6 and on mice AhR^−/−, i.e., mice from which the AhR receptor had been artificially removed. The treatment with IAld lasted for 7 days.

Candida albicans [2] = assay: Infection by C. albicans, fungus given intragastrically; assay type: in vivo, mice; conditions: 18 mg/kg intragastrically daily, 7 days
Description: as §1

Candida albicans [3] = assay: Infection by C. albicans, fungus given intravaginally; assay type: in vivo, mice; conditions: 18 mg/kg intragastrically daily, 7 days
Description: as §1

colitis = assay: Colitis model induced by dextran sodium sulphate through the mouth; assay type: in vivo, mice; conditions: 18 mg/kg intragastrically daily, 7 days
Description: as §1

T1 sequence (P30561 10-805 limits assumed): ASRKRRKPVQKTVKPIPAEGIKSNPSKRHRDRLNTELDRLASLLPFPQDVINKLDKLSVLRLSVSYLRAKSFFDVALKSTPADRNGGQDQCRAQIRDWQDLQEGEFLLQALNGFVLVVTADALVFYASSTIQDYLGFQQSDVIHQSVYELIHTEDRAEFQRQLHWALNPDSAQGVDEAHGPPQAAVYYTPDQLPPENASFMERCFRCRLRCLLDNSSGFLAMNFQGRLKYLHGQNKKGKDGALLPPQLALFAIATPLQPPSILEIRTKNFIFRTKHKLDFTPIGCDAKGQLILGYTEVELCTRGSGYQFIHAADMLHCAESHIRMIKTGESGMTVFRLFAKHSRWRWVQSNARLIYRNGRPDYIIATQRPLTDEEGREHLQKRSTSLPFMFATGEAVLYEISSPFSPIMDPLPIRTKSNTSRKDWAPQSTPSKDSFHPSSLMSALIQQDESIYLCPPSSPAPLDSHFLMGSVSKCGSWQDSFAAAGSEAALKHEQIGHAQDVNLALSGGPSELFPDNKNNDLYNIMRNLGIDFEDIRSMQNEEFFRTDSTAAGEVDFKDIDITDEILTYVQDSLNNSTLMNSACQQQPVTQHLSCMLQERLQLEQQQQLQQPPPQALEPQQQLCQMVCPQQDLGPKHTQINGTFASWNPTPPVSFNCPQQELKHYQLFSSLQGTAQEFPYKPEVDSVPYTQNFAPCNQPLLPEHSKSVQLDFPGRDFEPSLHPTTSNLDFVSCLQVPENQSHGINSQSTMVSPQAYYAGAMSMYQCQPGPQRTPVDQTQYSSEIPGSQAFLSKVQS
T1 sequence (P11499 whole entry partner): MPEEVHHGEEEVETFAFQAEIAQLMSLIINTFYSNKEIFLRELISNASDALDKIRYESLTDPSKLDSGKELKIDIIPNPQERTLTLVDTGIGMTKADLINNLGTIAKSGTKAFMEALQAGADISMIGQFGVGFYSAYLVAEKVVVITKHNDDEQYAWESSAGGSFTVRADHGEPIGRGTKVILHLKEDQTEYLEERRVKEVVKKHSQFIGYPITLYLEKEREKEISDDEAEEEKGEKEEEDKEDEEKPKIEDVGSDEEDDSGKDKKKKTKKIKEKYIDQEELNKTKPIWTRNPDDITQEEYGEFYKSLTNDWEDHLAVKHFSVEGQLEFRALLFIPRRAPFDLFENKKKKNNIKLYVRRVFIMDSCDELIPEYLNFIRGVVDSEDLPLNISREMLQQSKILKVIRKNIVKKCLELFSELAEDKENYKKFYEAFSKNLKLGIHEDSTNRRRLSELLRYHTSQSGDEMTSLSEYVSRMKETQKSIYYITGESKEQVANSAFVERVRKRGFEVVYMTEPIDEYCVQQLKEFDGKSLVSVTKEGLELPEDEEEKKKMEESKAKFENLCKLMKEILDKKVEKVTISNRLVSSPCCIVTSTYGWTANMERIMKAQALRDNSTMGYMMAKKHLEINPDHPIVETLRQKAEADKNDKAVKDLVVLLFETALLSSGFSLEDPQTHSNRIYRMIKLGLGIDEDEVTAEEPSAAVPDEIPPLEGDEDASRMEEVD
T1 sequence (O08915 whole entry partner): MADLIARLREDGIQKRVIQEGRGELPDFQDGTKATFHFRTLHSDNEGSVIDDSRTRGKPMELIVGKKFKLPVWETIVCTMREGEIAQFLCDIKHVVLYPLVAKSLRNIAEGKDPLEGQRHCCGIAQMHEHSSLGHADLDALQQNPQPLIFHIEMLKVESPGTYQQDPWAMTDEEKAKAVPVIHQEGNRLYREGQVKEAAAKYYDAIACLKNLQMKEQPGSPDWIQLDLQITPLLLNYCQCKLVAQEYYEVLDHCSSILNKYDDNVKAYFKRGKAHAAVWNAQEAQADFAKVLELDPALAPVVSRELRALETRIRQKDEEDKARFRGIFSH

SMILES: O=Cc1c[nH]c2ccccc12 [IAld, IH-indole-3-carbaldehyde]
- dose dependence of AhR-agonist activity (AhR): closely dependent on the dose
- AhR-agonist activity (luciferase activity as a percentage of the response induced by 50 nM FICZ) (AhR; compared with IAAld, ILA and IAA): substantially comparable to that of IAAld and is superior to that of ILA and IAA
- dose dependence of gene activation [1]: strongly dependent on the dose
- therapeutic effect in mice AhR−/− versus C57BL/6 (Candida albicans [2]; gastric candidiasis, mice AhR−/−): only to be found in mice C57BL/6 and not in mice AhR^−/−
- growth of Candida albicans (CFU) at stomach level (Candida albicans [2]; mice C57BL/6, FIG. 3 diagram A): significant reduction in growth
- activation of IL-22 and IL-10 in the stomach (Candida albicans [2]; mice C57BL/6, FIG. 3 histogram B): contemporaneous activation of IL-22 and IL-10
- growth of Candida albicans (CFU) at vagina level (Candida albicans [3]; mice C57BL/6, FIG. 3 diagram C): significant reduction in growth
- activation of IL-22 and IL-10 in the vagina (Candida albicans [3]; mice C57BL/6, FIG. 3 histogram B (so in the source)): contemporaneous activation of IL-22 and IL-10
- therapeutic effect in mice AhR−/− versus C57BL/6 (Candida albicans [3]; vaginal candidiasis, mice AhR−/−): only to be found in mice C57BL/6 and not in mice AhR^−/−
- therapeutic effect in mice AhR−/− versus C57BL/6 (colitis; colitis, mice AhR−/−): only to be found in mice C57BL/6 and not in mice AhR^−/−
- percentage variation in body weight (colitis; mice C57BL/6 with colitis, FIG. 3 graph E): prevention of the reduction in body weight
- degree of tissue inflammation (colon histopathology) (colitis; mice C57BL/6 with colitis, FIG. 3 photographs F): improvement in the degree of tissue inflammation
- cells producing IL-22 (immunofluorescence) (colitis; mice C57BL/6 with colitis, FIG. 3 photographs G): expansion of cells producing IL-22
